Source: US20190380912A1, “EXCIPIENT FREE GLUCOSAMINE TABLETS AND METHOD OF MAKING” (Purepharm Inc., priority 2018, published 2019)

Assay: Friability and hardness of dried tablets on handling
Format: physicochemical
Conditions: Pellet Press, dry powder without water

compressibility: did not compress at all
SMILES: CC(=O)N[C@H]1C(O)O[C@H](CO)[C@@H](O)[C@@H]1O (stereo partly shown) [N-Acetylglucosamine]
